Common to all, as to format: biochemical
In one experiment the target is T1, PDK1 (Homo sapiens, UniProt O15530).
T1 sequence (O15530 1-556): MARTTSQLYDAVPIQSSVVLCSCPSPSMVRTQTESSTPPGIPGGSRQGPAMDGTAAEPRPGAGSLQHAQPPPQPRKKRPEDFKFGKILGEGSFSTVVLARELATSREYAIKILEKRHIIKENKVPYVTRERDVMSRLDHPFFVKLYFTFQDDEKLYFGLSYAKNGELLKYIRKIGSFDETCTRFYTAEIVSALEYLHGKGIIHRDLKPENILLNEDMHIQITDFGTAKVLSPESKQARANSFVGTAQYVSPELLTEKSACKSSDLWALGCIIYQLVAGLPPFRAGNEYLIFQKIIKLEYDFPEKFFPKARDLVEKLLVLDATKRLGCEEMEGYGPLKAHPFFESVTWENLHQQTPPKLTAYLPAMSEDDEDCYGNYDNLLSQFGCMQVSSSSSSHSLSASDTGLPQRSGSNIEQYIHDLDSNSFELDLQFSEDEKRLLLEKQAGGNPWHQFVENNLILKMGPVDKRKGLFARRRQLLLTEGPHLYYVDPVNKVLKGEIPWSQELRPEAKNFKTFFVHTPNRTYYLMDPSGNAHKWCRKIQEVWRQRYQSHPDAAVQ
As to the kind of experiment: PDK1 kinase assay (33P peptide phosphorylation). The note with it: 0.01 mM ATP, 60 min at 30° C.; read-out: PDK-1 IC50.

Experiment [1] addresses CDK-2 enzyme, complexed with cyclin A (Homo sapiens, UniProt P24941). As to the kind of experiment: CDK2 kinase assay (33P peptide phosphorylation). The conditions noted are these: 0.1 mM ATP, cyclin A complex.
For the next experiment, the target named is FGFR1 (Homo sapiens, UniProt P11362). As to the kind of experiment: Kinase selectivity screening (example 14).
Sequence of FGFR1 (P11362 22-822, species assumed): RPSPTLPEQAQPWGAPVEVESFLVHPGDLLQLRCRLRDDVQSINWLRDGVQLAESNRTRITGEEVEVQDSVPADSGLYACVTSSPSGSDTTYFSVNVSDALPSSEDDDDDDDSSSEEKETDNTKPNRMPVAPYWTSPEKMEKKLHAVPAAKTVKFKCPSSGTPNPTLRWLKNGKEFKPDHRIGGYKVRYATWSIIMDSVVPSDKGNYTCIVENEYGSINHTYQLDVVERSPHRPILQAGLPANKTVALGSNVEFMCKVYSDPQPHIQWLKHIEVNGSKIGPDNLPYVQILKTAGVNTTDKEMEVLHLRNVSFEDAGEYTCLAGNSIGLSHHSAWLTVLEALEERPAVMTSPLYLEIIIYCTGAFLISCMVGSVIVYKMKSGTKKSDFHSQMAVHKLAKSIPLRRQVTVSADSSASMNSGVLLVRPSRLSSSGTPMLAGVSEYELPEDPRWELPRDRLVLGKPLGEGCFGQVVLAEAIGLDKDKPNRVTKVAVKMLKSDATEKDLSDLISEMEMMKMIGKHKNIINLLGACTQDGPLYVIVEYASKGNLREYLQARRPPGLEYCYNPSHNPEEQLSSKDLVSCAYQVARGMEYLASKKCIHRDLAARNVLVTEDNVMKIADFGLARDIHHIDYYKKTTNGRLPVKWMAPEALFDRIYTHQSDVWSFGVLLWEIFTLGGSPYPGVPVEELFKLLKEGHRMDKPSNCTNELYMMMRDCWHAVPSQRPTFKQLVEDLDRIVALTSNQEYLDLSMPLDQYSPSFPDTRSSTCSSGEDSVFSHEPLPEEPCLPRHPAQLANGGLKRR
Another experiment addresses FGFR3 (Homo sapiens, UniProt P22607). As to the kind of experiment: Kinase selectivity screening (example 14).
The next experiment concerns the target KDR (Homo sapiens, UniProt P35968). As to the kind of experiment: Kinase selectivity screening (example 14).
The target of the next experiment is Syk (Homo sapiens, UniProt P43405). As to the kind of experiment: Kinase selectivity screening (example 14).

Sequence of KDR (P35968 20-1356, species assumed): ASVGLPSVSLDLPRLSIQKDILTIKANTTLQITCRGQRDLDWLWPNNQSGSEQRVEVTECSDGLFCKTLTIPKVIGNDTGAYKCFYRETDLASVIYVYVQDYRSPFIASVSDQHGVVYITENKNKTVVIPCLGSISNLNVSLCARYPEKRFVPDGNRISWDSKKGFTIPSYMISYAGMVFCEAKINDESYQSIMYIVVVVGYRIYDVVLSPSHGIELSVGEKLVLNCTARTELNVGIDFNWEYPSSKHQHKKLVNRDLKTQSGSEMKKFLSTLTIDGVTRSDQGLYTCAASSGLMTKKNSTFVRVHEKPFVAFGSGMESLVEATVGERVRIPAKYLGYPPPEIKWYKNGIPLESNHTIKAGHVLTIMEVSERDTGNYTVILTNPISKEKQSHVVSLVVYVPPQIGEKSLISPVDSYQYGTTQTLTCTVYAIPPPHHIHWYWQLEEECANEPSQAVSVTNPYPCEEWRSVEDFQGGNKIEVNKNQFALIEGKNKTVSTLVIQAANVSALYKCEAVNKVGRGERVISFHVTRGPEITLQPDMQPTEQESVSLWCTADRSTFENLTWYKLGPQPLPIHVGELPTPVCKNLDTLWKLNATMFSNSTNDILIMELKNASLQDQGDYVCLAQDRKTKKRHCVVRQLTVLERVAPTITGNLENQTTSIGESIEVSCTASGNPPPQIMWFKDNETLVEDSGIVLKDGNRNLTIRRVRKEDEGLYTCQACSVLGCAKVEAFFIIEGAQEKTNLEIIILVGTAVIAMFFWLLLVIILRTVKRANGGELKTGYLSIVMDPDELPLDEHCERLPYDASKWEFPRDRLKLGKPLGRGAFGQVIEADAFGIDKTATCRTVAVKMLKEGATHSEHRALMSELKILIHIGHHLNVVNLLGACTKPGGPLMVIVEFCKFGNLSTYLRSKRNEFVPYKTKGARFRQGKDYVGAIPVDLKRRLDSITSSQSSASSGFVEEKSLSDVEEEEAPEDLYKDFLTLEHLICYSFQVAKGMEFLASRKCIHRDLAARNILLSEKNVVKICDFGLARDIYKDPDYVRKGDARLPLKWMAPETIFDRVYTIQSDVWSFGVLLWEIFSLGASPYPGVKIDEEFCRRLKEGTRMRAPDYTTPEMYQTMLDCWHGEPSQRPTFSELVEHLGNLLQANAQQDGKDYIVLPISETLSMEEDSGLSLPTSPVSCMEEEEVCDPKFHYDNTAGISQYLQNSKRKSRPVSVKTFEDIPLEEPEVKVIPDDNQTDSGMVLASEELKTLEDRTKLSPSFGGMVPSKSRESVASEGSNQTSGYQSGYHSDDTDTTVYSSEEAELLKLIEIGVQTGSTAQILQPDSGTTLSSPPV
Sequence of FGFR3 (P22607 23-806, species assumed): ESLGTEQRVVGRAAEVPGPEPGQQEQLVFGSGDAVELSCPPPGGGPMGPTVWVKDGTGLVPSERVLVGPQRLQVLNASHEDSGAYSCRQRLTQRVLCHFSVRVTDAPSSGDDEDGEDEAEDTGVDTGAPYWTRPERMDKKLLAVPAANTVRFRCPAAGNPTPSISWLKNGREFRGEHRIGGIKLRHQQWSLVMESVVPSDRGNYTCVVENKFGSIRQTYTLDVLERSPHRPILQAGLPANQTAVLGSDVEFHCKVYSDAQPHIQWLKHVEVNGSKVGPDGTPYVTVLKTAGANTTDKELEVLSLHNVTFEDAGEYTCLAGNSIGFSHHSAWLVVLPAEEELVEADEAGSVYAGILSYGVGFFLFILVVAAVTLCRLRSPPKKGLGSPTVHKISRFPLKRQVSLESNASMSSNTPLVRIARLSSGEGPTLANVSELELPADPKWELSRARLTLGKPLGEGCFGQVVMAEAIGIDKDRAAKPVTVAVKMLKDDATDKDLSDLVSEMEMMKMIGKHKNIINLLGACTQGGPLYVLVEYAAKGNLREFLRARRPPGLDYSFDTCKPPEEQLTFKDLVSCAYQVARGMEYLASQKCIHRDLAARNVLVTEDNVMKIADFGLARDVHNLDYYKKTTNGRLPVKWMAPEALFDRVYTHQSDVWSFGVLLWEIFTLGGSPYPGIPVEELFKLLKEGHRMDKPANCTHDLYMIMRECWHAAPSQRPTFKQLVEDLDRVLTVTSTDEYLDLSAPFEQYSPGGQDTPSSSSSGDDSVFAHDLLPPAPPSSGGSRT

What is called IC50 is the midpoint of a concentration-inhibition curve. In the case of `Cc1[nH]nc(-c2nc3cc4cn[nH]c4cc3[nH]2)c1C(=O)NC1CCNCC1` [Example 14], the IC50 was 10 nM at PDK1 and 5.11 µM in experiment [1]. For the same molecule, on FGFR1, the “selectivity versus FGFR1” value is greater than 20 fold. In addition, the “selectivity versus FGFR3” value on FGFR3 is listed as greater than 20 fold. At KDR, the “selectivity versus KDR” value is given as greater than 20 fold. In addition, at Syk, the “selectivity versus Syk” value is greater than 20 fold.
